Assay results taken from PubChem BioAssay (NCI).
Where “and” joins values, the source holds several entries; their conditions need not be identical. Equal values may be shown once.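 Method: 48-hour compound exposure of cells in 96-well plates, five concentrations, linear interpolation of endpoints. The concentration for 50% growth inhibition is given as GI50. At the TGI there is no net growth.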

Legend:
Test in all cases: NCI tumour cell line growth inhibition, 48 h
[1] = system: BT-549 breast
[2] = system: T-47D breast
[3] = system: DMS 114 small cell lung
[4] = system: HOP-18 NSCLC
[5] = system: LXFL 529 NSCLC
[6] = system: SNB-78 CNS
[7] = system: RXF-631 renal
[8] = system: MDA-N

Row | Compound | GI50 [1] [µM] | TGI [1] [µM] | GI50 [2] [µM] | TGI [2] [µM] | TGI [3] | TGI [4] | TGI [5] | TGI [6] [µM] | TGI [7] | also measured
1 | Cc1cc(I)cc(CN(C)CCCCN2CCCCC2)c1O | 8.05 | 21.5 | 16.1 | 49.3 | – | – | – | – | – | –
2 | O=C(COc1ccc(Br)cc1Br)N1N=C(c2ccc([N+](=O)[O-])o2)CC1(O)c1ccccc1 (stereo not drawn) | – | – | – | – | 23.5 µM | 41 µM | 21.6 µM | > 100 | – | –
3 | COc1cc(-c2nn(-c3ccc(NC(=O)c4ccc(Cl)c(C(F)(F)F)c4)cc3)cc2-c2ccncc2)ccc1Cl | 3.08 | 32.5 | 2.98 | > 100 | – | – | – | – | – | –
4 | COc1ccccc1C12OC(=O)C1(C)Oc1ccccc1C2=O (stereo not drawn) | – | – | – | – | > 100 µM | – | > 100 µM | > 100 | > 100 µM | –
5 | CCOC(=O)CN1C(=O)c2cccc3cc([N+](=O)[O-])cc(c23)C1=O | – | – | – | – | 4.94 µM | 33.8 µM | 3.13 µM | 19.3 | – | –
6 | C/C(CC(=O)CCC(=O)Nc1cccc(C(F)(F)F)c1)=N\NC(=O)NN | – | – | – | – | > 100 µM | > 100 µM | > 100 µM | > 100 | > 100 µM | –
7 | COc1ccc2c(c1)/C(=C/c1c(C)nc3sc(C)nn13)C(=O)N2 | 5.69 | > 100 | 2.53 | > 100 | – | – | – | – | – | –
8 | Cc1nc2ccccc2c(N)c1-c1cc(C)c2c(C)nc3ccccc3c2n1 | 1.05 | 2.46 | 1.78 | 4.04 | – | – | – | – | – | –
9 | Brc1ccc(N=c2nc3ccccn3n3nc(-c4ccccc4)cc23)cc1 | – | – | – | – | > 100 µM | > 100 µM | > 100 µM | – | > 100 µM | –
10 | CCC(CO)Nc1nc2ccc(Cl)cc2c2ccccc12 (stereo not drawn) | 10.1 | 21.7 | 6.13 | 20.9 | – | – | – | – | – | –
11 | COC1CCC2C(NS(=O)(=O)c3ccc(C)cc3)CCCC2O1 (stereo not drawn) (tested in a mixture with another compound) | – | – | – | – | 27.9 µM | – | – | > 34.5 | > 34.5 µM | –
12 | CCN(CCO)CC1CCCC2CCCCC21 (stereo not drawn) | – | > 100 | – | > 100 | – | – | – | – | – | TGI [8]: > 100 µM
13 | CSc1nc2c(c(=O)[nH]1)N=C1c3ccccc3C(=O)C1C(c1ccccc1)N2 (stereo not drawn) | 5.35 | > 100 | 4.6 | > 100 | – | – | – | – | – | –
14 | COC(=O)[C@@H]1[C@H](O)[C@H](C)[C@H](O)[C@@](C)(O)/C=C\C=C(C)C(=O)Nc2c(C)c(OC(C)=O)c3c(c2O)C(=O)C(C)=C2OCOC(=C23)C(C)=C[C@@](C)(O)[C@H](O)[C@@H](C)[C@H]1OC(C)=O | – | – | – | – | > 100 µM and 21.9 µM | > 100 µM and 66.9 µM | > 100 µM and 66.9 µM | > 100 | > 100 µM and 66.9 µM | GI50 [4]: 41.3 µM; GI50 [5]: 35.6 µM; GI50 [7]: > 100 µM and 39.8 µM and 36.4 µM
15 | O=C(Nc1ccccc1OC(F)(F)F)Nc1n[nH]c2ccccc12 | 76.4 | > 100 | 37.5 | > 100 | – | – | – | – | – | –
16 | CC(C)=CC(=O)C1c2cccc(O)c2C(=O)c2c(O)cc(C)cc21 (stereo not drawn) | – | – | – | – | 3.57 µM | 4.03 µM | 4.47 µM | 7.84 | – | –
17 | CCCCC(=O)OCC(=O)[C@]1(O)Cc2c(O)c3c(c(O)c2[C@@H](OC2CC(NC(=O)C(F)(F)F)C(O)C(C)O2)C1)C(=O)c1c(OC)cccc1C3=O (stereo partly drawn) | – | 9.7 | – | 7.55 | 1.66 µM | – | > 32.7 µM | – | 6.44 µM | TGI [8]: 5.02 µM
18 | Cc1ccc2c(=O)cc(-c3ccc(F)cc3)[nH]c2n1 | – | > 100 | – | > 100 | – | – | – | – | – | TGI [8]: 32.1 µM
19 | NNC(=O)Nc1cccnc1 | – | – | – | > 100 | – | – | – | – | – | TGI [8]: > 100 µM
20 | N#CC1C(C#N)C2(c3ccccc3)C(c3ccccc3)=NN(c3ccccc3)CC12 (stereo not drawn) | – | – | – | – | > 100 µM | > 100 µM | > 100 µM | > 100 | – | –
21 | O=C(CC1(O)C(=O)Nc2c(Cl)cc(Cl)cc21)c1ccc(Br)cc1Br (stereo not drawn) | – | 22.3 | – | – | 20.3 µM | 27.9 µM | – | > 74.9 | 9.25 µM | TGI [8]: 21.8 µM
22 | CN(C)C(=N)c1ccccc1 | – | – | – | – | > 100 µM | – | > 100 µM | > 100 | – | –
23 | CC(C)C/C(CC(=O)CCC(=O)Nc1ccccc1[N+](=O)[O-])=N\NC(=O)c1cc2ccccc2cc1O | – | – | – | – | 86.8 µM | > 100 µM | > 100 µM | – | > 100 µM | –
24 | COc1cc(Cc2cnc(/N=C3\C(=O)N(CN4CCN(c5c(F)cc6c(=O)c(C(=O)O)cn(C7CC7)c6c5OC)CC4C)c4ccc(F)cc43)nc2N)cc(OC)c1OC (stereo not drawn) | 19.7 | 49.2 | 2.85 | 24.3 | – | – | – | – | – | –
25 | COC1(OC)CCC2C1C1CCC(OC)(OC)C21 (stereo not drawn) | – | – | – | – | > 50 µM | > 50 µM | > 50 µM | > 50 | > 50 µM | –
26 | CC1=C(C(=O)NCc2ccccc2)C(/C=C/c2ccccc2)C(C(=O)NCc2ccccc2)=C(C)N1 | – | – | – | – | > 100 µM | > 100 µM | > 100 µM | > 100 | – | –
